Results published in US20250170108A1, “CHEMOTHERAPY FOR CANCER USING AZABICYCLO COMPOUND” (TAIHO PHARMACEUTICAL CO., LTD., priority 2017, published 2025).

What was measured:
[1] = test system: mouse bowel cancer cell line MC38; assay: Antitumor effect of Compound 1 and anti-mouse PD-L1 or anti-mouse CTLA-4 antibody in bowel cancer cell transplanted model (Example 3); format: in vivo
Protocol: (§1) Mouse bowel cancer cell line MC38 was obtained from Dr. Yoshihiro Hayakawa (University of Toyama, Toyama, Japan), and cultured in a RPMI1640 (Sigma-Aldrich) medium (culture solution) containing 10% fetal bovine serum (FBS). MC38 was subcultured at a ratio of 1:3 to 1:5 once or twice a week in an incubator with 5% CO2 at 37° C.
(§2) A cell suspension with a concentration of 2×10^6 cells/0.1 mL was transplanted subcutaneously in the vicinity of the right backmost rib bone of a 6-week-old C57BL/6JJcI mouse (CLEA Japan, Inc.).
(§3) The tumor was grown until reaching a tumor volume (TV) of 50 to 300 mm^3 after the transplantation. Degimatic Caliper was used for tumor diameter measurement. The major diameter and the minor diameter of the tumor were measured, and TV was calculated from the following equation.
(§4) By a stratified random allocation method using TV as an index, 6 animals were allocated to each group. The day when grouping (n=6) was performed was defined as Day 0.
(§5) The relative tumor volume (RTV) and the relative tumor volume change ratio (T/C) were calculated from TV.
(§6) An appropriate amount of water for injection described in the Japanese Pharmacopeia was added for adjusting hypromellose concentration to 0.5 w/v %, and the mixture was then stirred with a stirrer to completely dissolve hypromellose, to prepare a 0.5% aqueous hypromellose solution. Compound 1 was ground with an agate mortar, and then suspended to a predetermined concentration with the 0.5% aqueous hypromellose solution, and ultrasonic treatment was performed to obtain a homogeneous suspension. The suspension containing Compound 1 was orally administered once a day over 5 consecutive days at a dose of 10 mg/kg/day or 14 mg/kg/day, followed by cessation of administration for 2 days, and these processes were repeated three times.
The same procedure as described in Example 1 was carried out except that the anti-mouse PD-L1 antibody or the anti-CTLA-4 antibody was used instead of the anti-mouse PD-1 antibody. […]

[2] = Body weight change ratio in MC38 transplanted model (Example 3); format: in vivo, mouse; settings: Compound 1 14 mg/kg/day p.o. days 1-5, 8-12, 15-19
Protocol: (§7) An electronic balance for animals was used for body weight measurement. The body weight change ratio on the nth day (BWCn) was calculated from the body weight on the nth day (BWn) in accordance with the following equation.
The same procedure as described in Example 1 was carried out except that the anti-mouse PD-L1 antibody or the anti-CTLA-4 antibody was used instead of the anti-mouse PD-1 antibody.
The anti-mouse PD-L1 antibody (anti-mPD-L1 Ab) was prepared by diluting InVivoMab anti-mouse PD-L1 (B7-H1) (Clone: 10F.9G2, Bio X cell Co.) to a predetermined concentration with Otsuka Normal Saline immediately before administration. On the first day of administration (day 1), the diluted product was intraperitoneally administered using the anti-mouse PD-L1 antibody at a dose of 0.05 mg/body. The anti-mouse CTLA-4 antibody (anti-mCTLA-4 Ab) was prepared by diluting InVivoMab anti-mouse CTLA-4 (CD152) (Clone: 9H10, Bio X cell Co.) to a predetermined concentration with Otsuka Normal Saline immediately before administration. On the first day of administration (day 1), the diluted product was intraperitoneally administered using the anti-mouse CTLA-4 antibody at a dose of 0.05 mg/body.

[3] = test system: tumor infiltrating leucocytes (CD8 positive cells, regulatory T-cells); assay: Immunostimulatory action: flow cytometric analysis of tumor infiltrating lymphocytes in MC38 transplanted model (Example 2); format: in vivo, mouse
Protocol: Mouse bowel cancer cell line MC38 was cultured using a RPMI1640 (Waco Pure Chemical Industries, Ltd.) medium containing 10% FBS. MC38 was subcultured at a ratio of 1:5 to 1:10 once or twice a week in an incubator with 5% CO2 at 37° C.
A cell suspension with a concentration of 2×10^6 cells/0.1 mL was transplanted subcutaneously in the vicinity of the right backmost rib bone of a 6-week-old C57BL/6NJCrI mouse (Charles River Laboratories Japan Inc.).
The tumor was grown until reaching a tumor volume (TV) of 110 to 360 mm^3 after the transplantation. Degimatic Caliper was used for tumor diameter measurement. The major diameter and the minor diameter of the tumor were measured, and TV was calculated from the following equation.
By a stratified random allocation method using TV as an index, 5 animals were allocated to each group. The day when grouping (n=5) was performed was defined as Day 1.
Agents prepared by the same method as described in Example 1 were used for administration. Anti-mouse PD-1 antibody (anti-mPD-1 Ab), CD279(PD-1)Monoclonal Antibody (RMP1-14), eBioscience (Thermo Fisher Scientific), was used as an anti-mouse PD-1 antibody, and intraperitoneally administered at a dose of 0.05 mg/body on the first day of administration (Day 1). Compound 1 was orally administered at a dose of 14 mg/kg/day once a day on Days 1-5 and 8-9.
For detecting expression of immunity-related factors, flow cytometric analysis was performed for immunological monitoring. On Day 10, the tumor was sampled, and tumor infiltrating lymphocytes were then prepared using Tumor Dissociation Kit, mouse (Miltenyi Biotec). Thereafter, the antibody was stained using FoxP3/Transcription Factor Staining Buffer Set (thermo Fisher Scientific), and analysis was then performed using Flow Cytometer FACSVerse (BD Bioscience). […]

[4] = test system: mouse bowel cancer cell line MC38; assay: Antitumor effect of Compound 1 and anti-mouse PD-1 antibody in bowel cancer cell transplanted model (Example 1); format: in vivo; settings: for RTV Day 22 (mean ± SD): MC38 transplanted mice; for T/C (%): Day 22
Protocol: as §1, §2, §3, §4, §5
RTV and T/C were calculated from the following equation.
as §6
(§8) The anti-mouse PD-1 antibody (anti-mPD-1 Ab) was prepared by diluting InVivoMab anti-mouse PD-1 (CD279) (Clone: RMP-1-14, Bio X cell Co.) to a predetermined concentration with Otsuka Normal Saline immediately before administration. On the first day of administration (day 1), the diluted product was intraperitoneally administered as the anti-mouse PD-1 antibody at a dose of 0.05 mg/body.

[5] = Body weight change ratio in MC38 transplanted model (Example 1); format: in vivo, mouse
Protocol: as §7, §6, §8

[6] = Day 10, Compound 1 14 mg/kg/day p.o. Days 1-5 and 8-9, Dunnett test
[7] = Compound 1 10 mg/kg/day p.o. days 1-5, 8-12, 15-19
[8] = Compound 1 14 mg/kg/day p.o. days 1-5, 8-12, 15-19

With CCc1cc(C(N)=O)ccc1-n1nc(C(C)C)c2c(-n3cnc(-c4cnn(C)c4)c3)ccnc21 [Compound 1, 3-ethyl-4-{3-isopropyl-4-(4-(1-methyl-1H-pyrazol-4-yl)-1H-imidazol-1-yl)-1H-pyrazolo[3,4-b]pyridin-1-yl}benzamide] the “RTV on Day 22 as compared to the control group” value ([1]; Aspin-Welch's t-test, Example 3) was “significantly lower RTV”, the “RTV Day 22 (mean ± SE)” value ([1]; Compound 1 14 mg/kg/day p.o. days 1-5, 8-12, 15-19, MC38 transplanted mice) was 8.32 ± 0.51 and the “T/C (%)” value ([1]; Day 22, Compound 1 14 mg/kg/day p.o. days 1-5, 8-12, 15-19) was 49.7%. For the same compound, the “BWC(%) Day 22 Mean” value [2] was 6.63%, the “ratio of CD8 positive cells in leucocytes (CD45 positive cells) as compared to the control group” value [3, 6] was “significantly higher” and the “ratio of regulatory T-cells in T-cells as compared to the control group” value [3, 6] was “significantly lower”. For the same compound, the immunostimulatory activity ([3]; conclusion from Example 2) was “shows immunostimulatory activity”, the “RTV on Day 22 as compared to the control group” value ([4]; Aspin-Welch's t-test, Example 1) was “significantly lower RTV” and the “RTV Day 22 (mean ± SD)” value [4, 7] was 7.93 ± 1.29. For the same compound, the “RTV Day 22 (mean ± SD)” value [4, 8] was 5.59 ± 0.92, the “T/C (%)” value [4, 7] was 41.7% and the “T/C (%)” value [4, 8] was 29.4%. The “BWC(%) Day 22 Mean” value [5, 7] was 13.5% and the “BWC(%) Day 22 Mean” value [5, 8] was 12.8%.
